Data: patent US12643867B2, “Compositions and uses thereof” (University of Virginia Patent Foundation, priority 2017, dated 2026)

Experiments:
[1] = target: T1, MP2K6 (Dual specificity mitogen-activated protein kinase kinase 6) (Homo sapiens, UniProt P52564); experiment: SILAC LC-MS ATP acyl phosphate probe competition, native kinases in HEK293T; type: binding; settings: site Lys1; ATP 1 mM; Ketanserin, Ritanserin 100 μM; RF001 1 mM
T1 construct: Native kinases; endogenous in cells; host or cells: HEK293T soluble proteome
T1 sequence (P52564 1-334): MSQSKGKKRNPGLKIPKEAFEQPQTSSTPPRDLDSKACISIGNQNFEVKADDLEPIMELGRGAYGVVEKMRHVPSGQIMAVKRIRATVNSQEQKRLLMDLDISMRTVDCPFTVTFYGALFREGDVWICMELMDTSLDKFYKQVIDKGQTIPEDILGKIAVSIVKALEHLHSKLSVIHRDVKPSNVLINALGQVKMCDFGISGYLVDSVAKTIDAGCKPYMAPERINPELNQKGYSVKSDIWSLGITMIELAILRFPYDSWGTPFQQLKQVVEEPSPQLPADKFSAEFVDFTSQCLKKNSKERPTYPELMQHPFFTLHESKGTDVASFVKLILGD
Protocol: (§1) Proteomes were diluted to 2 mg/ml in kinase buffer. The light and heavy proteomes (0.5 mg, 250 μL total reaction volume) were pre-treated with vehicle or compound, respectively (5 μL, DMSO (light) or 50× stock in DMSO (heavy)), mixed gently, and incubated at 25° C. for 30 min. […] After incubation, matched light and heavy proteomes were transferred and mixed in a 1:1 ratio in a two-dram vial containing 4:1:3 MeOH/CHCl3/H2O (2 mL MeOH, 500 AL CHCl3, 1.5 mL H2O) for extraction of proteins to remove excess probe, quickly vortexed, and centrifuged at 1,400×g for 3 min to pellet protein. Organic and aqueous layers were removed using a Pasteur pipette, and the protein pellet was transferred to a screw-top tube in 600 μL MeOH. A second extraction was performed by adding CHCl3 (150 μL) and H2O (600 μL) to each sample, vortexed, and centrifuged at 1,400×g for 3 min to pellet protein. Organic and aqueous layers were removed by pipetting. MeOH added to pellet (600 μL) and pellets were re-suspended by sonication (3×1 sec pulse, 20% amplitude) for a final extraction. Samples were then centrifuged at 17,000×g for 5 min to pellet protein and MeOH was removed by pipetting. The pellets were re-suspended in 10 M urea/25 mM ammonium bicarbonate ([…]), brought to a final volume of 1 mL with 25 mM ammonium bicarbonate, reduced with 10 mM DTT for 15 min at 65° C. allowed to cool, and then alkylated with 40 mM iodoacetamide for 30 min at 25° C. in the dark. To desalt the samples, each was transferred to a two-dram glass vial, and to the vial 4:1:2 MeOH/CHCl3/H2O (2 mL MeOH, 500 AL CHCl3, 1 mL H2O) was added. The vials were vortexed quickly, spun at 1.400×g for 3 min to pellet protein, and aqueous and organic layers were removed using a Pasteur pipette. The resulting protein pellet was transferred to a screw-top tube in 600 μL MeOH, and then CHCl3 (150 μL) and HO (600 μL) were added to extract protein a second time. The samples were vortexed quickly, centrifuged at 1,400×g to pellet protein, and the aqueous and organic layers were removed by pipetting. Resulting protein pellet was suspended in MeOH (600 μL) via sonication (3×1 sec pulse, 20% amplitude), centrifuged at 17,000×g for 5 min to pellet protein, and MeOH removed by pipetting. Protein pellets were then re-suspended in 25 mM ammonium bicarbonate (500 μL) and digested with 7.5 μg Trypsin/Lys-C(Promega, 15 μL, 0.5 μg/μL) for 3 h at 37° C. Avidin-agarose beads (Thermo Scientific Pierce, 100 AL aliquot per sample) were washed three times by adding 10 mL DPBS, centrifuged at 1,400×g for 1 min, and decanting. This wash step was repeated for a total of 3 times. Digested protein samples were mixed with washed avidin beads (100 μL) and brought to a volume of 5.5 mL with DPBS in a 15 mL conical and rotated for 1 h to enrich samples for the covalent desthiobiotin modification. The beads were washed with 25 mM ammonium bicarbonate (3× with 10 mL, centrifuge at 1,400×g for 3 min, decant) and then H2O (3× with 10 mL, centrifuge at 1,400×g for 3 min, decant). Washed beads were then transferred to a low-bind microfuge tube, centrifuged at 1,400×g for 3 min, allowed to rest for 1 min to settle beads, and then excess H2O was removed carefully using a gel-loading pipette tip. To elute peptides, 100 μL of elution buffer (50% acetonitrile, ACN; 0.1% formic acid) was added to each sample and incubated for 3 min. Beads were spun down at 1.400×g for 3 min, allowed to rest for 1 min to settle beads, and then 75 μL of peptide-containing supernatant was removed carefully using a gel-loading pipette tip and transferred to a new low bind centrifuge tube. This step was repeated two more times with 75 μL of elution buffer and all eluent were collected into the same centrifuge tube (˜225 μL total). Peptides were dried on a speed vacuum, resulting peptide samples acidified in 5% (v/v) formic acid, and stored at −80° C. until analysis.
(§2) The peptide samples were analyzed by liquid chromatography-mass spectrometry. […]

[2] = target: T2, SMG1 (Serine/threonine-protein kinase SMG1) (Homo sapiens, UniProt Q96Q15); experiment: as above; type: binding; settings: site ATP; ATP 1 mM; Ketanserin, Ritanserin 100 μM; RF001 1 mM
T2 construct: Native kinases; endogenous in cells; host or cells: HEK293T soluble proteome
T2 sequence (Q96Q15 whole entry): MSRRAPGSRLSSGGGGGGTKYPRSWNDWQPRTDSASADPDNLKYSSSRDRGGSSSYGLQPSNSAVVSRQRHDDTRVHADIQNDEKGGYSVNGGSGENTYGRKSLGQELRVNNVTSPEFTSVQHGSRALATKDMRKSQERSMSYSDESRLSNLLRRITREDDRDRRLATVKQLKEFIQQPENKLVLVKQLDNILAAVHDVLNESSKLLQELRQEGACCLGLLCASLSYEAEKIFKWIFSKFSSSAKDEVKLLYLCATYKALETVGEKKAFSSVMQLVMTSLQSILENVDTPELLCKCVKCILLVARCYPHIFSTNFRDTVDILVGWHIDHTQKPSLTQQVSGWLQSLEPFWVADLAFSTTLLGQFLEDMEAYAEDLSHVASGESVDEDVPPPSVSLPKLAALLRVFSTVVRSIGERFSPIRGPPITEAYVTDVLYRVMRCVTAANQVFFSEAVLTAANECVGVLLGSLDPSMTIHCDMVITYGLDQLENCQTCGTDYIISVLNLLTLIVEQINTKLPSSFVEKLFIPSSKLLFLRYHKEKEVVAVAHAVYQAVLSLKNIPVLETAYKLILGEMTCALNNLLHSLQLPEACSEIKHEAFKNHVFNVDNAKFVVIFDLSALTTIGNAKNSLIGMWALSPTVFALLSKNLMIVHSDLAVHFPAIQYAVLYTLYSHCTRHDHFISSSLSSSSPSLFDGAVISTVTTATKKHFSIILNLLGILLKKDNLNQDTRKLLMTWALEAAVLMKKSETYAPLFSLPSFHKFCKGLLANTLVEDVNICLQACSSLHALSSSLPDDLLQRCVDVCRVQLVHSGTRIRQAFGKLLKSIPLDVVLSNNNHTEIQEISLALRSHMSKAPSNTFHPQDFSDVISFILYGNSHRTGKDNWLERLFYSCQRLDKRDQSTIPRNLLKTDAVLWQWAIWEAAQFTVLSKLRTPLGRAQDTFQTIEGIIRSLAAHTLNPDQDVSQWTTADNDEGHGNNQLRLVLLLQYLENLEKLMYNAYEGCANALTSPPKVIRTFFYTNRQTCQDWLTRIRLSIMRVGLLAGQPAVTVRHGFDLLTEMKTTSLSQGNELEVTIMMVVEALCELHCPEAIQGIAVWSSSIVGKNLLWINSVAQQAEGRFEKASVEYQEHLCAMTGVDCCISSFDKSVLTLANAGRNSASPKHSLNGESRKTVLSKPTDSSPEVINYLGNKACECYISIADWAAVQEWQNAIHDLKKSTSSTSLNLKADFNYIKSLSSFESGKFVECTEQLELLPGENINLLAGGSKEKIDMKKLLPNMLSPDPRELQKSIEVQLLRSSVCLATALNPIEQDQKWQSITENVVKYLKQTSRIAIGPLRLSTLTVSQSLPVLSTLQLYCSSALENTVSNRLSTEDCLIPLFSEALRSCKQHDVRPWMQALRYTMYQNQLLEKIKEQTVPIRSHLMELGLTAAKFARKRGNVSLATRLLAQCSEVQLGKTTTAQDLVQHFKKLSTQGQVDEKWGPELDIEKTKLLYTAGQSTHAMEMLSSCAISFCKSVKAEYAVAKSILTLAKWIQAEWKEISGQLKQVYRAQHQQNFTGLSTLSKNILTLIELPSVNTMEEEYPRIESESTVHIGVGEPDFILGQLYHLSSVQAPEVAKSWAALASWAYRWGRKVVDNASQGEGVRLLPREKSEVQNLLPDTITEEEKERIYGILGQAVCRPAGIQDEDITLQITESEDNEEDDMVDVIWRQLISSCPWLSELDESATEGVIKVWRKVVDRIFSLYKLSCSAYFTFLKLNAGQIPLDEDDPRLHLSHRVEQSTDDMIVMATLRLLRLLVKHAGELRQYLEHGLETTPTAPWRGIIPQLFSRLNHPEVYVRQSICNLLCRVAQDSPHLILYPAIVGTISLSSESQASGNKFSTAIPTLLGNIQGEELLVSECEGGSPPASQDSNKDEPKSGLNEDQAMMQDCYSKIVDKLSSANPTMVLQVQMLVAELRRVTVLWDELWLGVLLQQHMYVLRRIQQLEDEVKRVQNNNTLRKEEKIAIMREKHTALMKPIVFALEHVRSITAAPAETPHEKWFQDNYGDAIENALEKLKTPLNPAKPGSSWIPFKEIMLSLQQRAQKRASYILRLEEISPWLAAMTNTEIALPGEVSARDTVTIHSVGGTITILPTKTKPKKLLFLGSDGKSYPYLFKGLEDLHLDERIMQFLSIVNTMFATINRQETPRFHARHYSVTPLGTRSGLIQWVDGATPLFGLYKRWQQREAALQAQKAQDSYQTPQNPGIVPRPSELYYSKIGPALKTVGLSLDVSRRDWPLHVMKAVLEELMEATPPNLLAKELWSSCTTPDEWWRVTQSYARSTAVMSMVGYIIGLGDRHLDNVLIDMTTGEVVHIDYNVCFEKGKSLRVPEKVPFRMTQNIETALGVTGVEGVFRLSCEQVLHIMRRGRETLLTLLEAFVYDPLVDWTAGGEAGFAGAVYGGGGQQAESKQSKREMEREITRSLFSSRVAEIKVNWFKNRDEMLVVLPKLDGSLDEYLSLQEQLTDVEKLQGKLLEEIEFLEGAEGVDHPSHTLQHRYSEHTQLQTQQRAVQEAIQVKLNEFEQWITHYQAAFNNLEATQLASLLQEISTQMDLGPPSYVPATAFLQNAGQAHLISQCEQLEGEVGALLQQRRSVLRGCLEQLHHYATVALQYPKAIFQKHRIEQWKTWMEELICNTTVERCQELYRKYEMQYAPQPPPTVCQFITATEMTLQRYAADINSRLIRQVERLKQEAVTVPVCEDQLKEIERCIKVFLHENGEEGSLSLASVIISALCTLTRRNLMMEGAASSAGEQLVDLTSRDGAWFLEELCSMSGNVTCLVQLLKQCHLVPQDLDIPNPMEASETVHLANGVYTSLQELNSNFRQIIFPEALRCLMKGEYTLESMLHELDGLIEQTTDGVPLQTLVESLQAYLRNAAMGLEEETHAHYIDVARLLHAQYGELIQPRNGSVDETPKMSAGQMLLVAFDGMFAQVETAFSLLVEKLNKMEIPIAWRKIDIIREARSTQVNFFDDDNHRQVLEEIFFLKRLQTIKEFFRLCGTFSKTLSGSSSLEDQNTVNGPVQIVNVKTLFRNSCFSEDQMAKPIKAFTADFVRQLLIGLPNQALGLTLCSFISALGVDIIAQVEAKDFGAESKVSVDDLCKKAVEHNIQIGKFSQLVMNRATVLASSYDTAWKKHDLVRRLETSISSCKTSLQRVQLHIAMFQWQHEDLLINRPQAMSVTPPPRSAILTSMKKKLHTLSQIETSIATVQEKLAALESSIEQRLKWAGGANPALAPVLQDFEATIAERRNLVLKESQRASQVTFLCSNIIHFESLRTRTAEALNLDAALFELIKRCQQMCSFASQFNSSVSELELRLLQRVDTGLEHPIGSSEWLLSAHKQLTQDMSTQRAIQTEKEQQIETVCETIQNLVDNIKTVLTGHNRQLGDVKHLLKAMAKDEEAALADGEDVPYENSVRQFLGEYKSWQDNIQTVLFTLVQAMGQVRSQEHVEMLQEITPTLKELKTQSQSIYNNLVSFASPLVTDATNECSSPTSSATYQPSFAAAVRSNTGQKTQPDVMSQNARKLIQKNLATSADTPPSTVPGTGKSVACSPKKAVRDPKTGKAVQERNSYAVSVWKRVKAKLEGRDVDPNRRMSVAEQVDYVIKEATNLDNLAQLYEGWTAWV
Protocol: as §1, §2

SMILES	SILAC ratio, MP2K6 probe-modified peptide [1]	SILAC ratio, SMG1 probe-modified peptide [2]
O=C(c1ccc(F)cc1)C1CCN(CCn2c(=O)[nH]c3ccccc3c2=O)CC1 [Ketanserin]	1.4	1.3
Fc1ccc(C(=C2CCNCC2)c2ccc(F)cc2)cc1 [RF001, 4-(Bis(4-fluorophenyl)methylene) piperidine]	1.1	1.0
Cc1nc2sccn2c(=O)c1CCN1CCC(=C(c2ccc(F)cc2)c2ccc(F)cc2)CC1 [Ritanserin]	2.2	1.7
